This is an account of results in US20110319392A1, “Thiazole Sulfonamide And Oxazole Sulfonamide Kinase Inhibitors” (priority 2009, published 2011).

Counter-ions that a name gives are not always drawn. A value given as a limit tells only on which side of the number the result lay.

Assay [1] has as its target T1, ErbB2 (Homo sapiens, UniProt P04626).
T1 construct: made in house; host or cells: baculovirus expression system
The experiment in a line: ErbB-2 substrate phosphorylation assay (HTRF). It counts as biochemical. In outline:
(§1)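 Baculovirus-expressed EGFR (0.8 nM) or ErbB2 (10 nM) in enzyme mix, preincubated 1 h at 20 °C with compound (0.00027–47.6 μM final), then 90 min at 20 °C with substrate mix of 20 μM ATP, 0.8 uM biotinylated Peptide C, MnCl2, MOPS pH 7.5. Phosphotyrosine by HTRF; pIC50 reported.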
On the technique in general: Time-resolved FRET reads energy transfer from a long-lived donor to a nearby acceptor.

Assay [2] deals with T2, EGFR (Homo sapiens, UniProt P00533).
T2 construct: made in house; host or cells: baculovirus expression system
T2 sequence (P00533 25-1210): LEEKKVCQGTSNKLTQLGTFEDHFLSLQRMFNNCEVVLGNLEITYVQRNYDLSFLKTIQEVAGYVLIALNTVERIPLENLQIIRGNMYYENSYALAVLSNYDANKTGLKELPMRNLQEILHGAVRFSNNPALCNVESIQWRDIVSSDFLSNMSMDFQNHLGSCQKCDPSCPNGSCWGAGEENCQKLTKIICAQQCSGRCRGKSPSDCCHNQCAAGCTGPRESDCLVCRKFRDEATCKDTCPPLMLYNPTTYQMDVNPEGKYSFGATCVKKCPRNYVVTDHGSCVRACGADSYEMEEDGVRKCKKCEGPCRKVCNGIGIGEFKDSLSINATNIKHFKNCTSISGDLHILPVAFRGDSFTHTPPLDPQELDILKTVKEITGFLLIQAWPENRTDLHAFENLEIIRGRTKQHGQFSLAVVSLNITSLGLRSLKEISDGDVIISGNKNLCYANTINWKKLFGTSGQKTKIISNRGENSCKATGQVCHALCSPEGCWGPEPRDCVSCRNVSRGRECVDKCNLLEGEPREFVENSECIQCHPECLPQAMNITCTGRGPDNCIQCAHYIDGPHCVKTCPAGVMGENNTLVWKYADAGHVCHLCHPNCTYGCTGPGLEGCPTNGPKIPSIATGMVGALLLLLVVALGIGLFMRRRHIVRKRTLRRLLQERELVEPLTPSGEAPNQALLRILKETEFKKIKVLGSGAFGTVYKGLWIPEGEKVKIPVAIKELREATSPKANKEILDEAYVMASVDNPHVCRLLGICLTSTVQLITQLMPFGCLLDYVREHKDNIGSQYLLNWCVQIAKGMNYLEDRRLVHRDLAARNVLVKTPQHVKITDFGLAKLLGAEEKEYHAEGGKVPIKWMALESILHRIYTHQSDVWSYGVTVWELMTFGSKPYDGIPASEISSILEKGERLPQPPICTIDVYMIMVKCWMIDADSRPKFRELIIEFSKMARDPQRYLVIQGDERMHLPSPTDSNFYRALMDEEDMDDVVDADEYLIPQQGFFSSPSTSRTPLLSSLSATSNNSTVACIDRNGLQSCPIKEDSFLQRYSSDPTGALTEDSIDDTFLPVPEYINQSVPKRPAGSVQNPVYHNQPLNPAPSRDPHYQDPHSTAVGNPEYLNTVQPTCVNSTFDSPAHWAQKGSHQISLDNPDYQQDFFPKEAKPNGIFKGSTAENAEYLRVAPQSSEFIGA
The experiment in a line: EGFR substrate phosphorylation assay (HTRF). In kind it is biochemical. The procedure, abridged: as §1

T1 sequence (P04626 23-1255): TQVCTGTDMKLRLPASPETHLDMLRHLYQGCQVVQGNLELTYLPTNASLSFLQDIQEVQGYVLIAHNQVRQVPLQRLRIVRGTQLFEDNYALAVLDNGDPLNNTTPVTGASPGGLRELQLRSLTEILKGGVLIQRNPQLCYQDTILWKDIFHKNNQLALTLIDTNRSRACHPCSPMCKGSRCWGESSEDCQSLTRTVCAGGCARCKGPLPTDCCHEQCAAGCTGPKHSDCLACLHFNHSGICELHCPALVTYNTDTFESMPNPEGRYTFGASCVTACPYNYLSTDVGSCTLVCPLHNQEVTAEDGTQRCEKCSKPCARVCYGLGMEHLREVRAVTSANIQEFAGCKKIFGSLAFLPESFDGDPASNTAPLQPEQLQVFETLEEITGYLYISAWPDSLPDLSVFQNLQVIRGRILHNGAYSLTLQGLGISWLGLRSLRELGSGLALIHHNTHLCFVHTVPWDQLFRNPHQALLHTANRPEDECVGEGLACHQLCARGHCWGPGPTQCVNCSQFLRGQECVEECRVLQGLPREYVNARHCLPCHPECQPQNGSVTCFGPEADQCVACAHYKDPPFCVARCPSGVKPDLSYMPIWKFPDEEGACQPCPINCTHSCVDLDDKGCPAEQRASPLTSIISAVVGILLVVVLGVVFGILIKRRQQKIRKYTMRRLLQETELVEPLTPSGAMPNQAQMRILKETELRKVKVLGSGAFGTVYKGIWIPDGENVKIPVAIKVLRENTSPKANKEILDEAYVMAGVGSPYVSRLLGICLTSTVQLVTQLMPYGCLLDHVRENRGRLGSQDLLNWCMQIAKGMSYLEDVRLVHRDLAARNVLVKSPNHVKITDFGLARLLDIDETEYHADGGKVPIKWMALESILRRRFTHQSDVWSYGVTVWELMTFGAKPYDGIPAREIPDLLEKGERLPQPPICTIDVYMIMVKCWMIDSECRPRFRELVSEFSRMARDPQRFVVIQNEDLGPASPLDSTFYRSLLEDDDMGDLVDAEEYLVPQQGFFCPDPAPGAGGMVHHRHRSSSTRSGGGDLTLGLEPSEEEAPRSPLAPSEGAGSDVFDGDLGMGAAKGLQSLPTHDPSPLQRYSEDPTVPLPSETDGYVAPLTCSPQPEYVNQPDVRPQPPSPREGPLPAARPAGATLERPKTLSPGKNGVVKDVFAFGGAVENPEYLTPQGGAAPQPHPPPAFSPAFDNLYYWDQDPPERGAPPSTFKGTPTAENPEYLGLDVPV

Consider `O=S(=O)(Nc1cccc(-c2nc(N3CCCCC3)sc2-c2ccnc(Nc3ccc(N4CCOCC4)nc3)n2)c1)c1c(F)cccc1F` [Example 151], for which the concentration for half-maximal inhibition (IC50) in assay [1] and in assay [2] was over 1000 nM throughout.

`O=S(=O)(Nc1cc(-c2nc(N3CCCC3)sc2-c2ccnc(Nc3ccc(N4CCOCC4)nc3)n2)ccc1F)c1c(F)cccc1F` [Example 26, 2,6-Difluoro-N-{2-fluoro-5-[5-(2-{(6-(4-morpholinyl)-3-pyridinyl]amino}-4-pyrimidinyl)-2-(1-pyrrolidinyl)-1,3-thiazol-4-yl]phenyl}benzenesulfonamide]: the IC50 in assay [1] and in assay [2] was 100 to 1000 nM each time.

For the molecule `CC(=O)N1CCN(c2ccc(Nc3nccc(-c4sc(C(C)C)nc4-c4cccc(NS(=O)(=O)c5cn(C)cn5)c4)n3)cn2)CC1` [Example 36], the 50% inhibitory concentration (IC50) (in general, the concentration that inhibits the measured activity by half) in assay [1] is over 1000 nM; in assay [2] it was under 100 nM.

On to `CC(C)c1nc(-c2cccc(NS(=O)(=O)c3c(F)cccc3F)n2)c(-c2ccnc(Nc3ccc(N4CCOCC4)nc3)n2)s1` [Example 44], for which the IC50 in assay [1] and in assay [2] was over 1000 nM throughout.

For `CCOc1ccc(Nc2nccc(-c3sc(N4CCCC4)nc3-c3cccc(NS(=O)(=O)c4c(F)cccc4F)c3)n2)cc1N1CCN(CCS(C)(=O)=O)CC1` [Example 109], the half-maximal inhibitory concentration (IC50) in assay [1] and in assay [2] was under 100 nM throughout.

For `COc1ccc(S(C)(=O)=O)cc1Nc1nccc(-c2sc(N3CCOCC3)nc2-c2cccc(NS(=O)(=O)c3c(F)cccc3F)c2F)n1` [Example 157], the IC50 in assay [1] and in assay [2] was over 1000 nM each time.

`CC(C)c1nc(-c2cccc(NS(=O)(=O)c3c(F)cccc3F)c2)c(-c2ccnc(Nc3ccc(OC4CCN(CCS(C)(=O)=O)CC4)c(F)c3)n2)s1` [Example 13, 2,6-Difluoro-N-{3-[5-(2-{[3-fluoro-4-({1-[2-(methylsulfonyl)ethyl]-4-piperidinyl}oxy)phenyl]amino}-4-pyrimidinyl)-2-(1-methylethyl)-1,3-thiazol-4-yl]phenyl}benzenesulfonamide hydrochloride]: the values for the IC50 in assay [1] and in assay [2] were over 1000 nM and 100 to 1000 nM, respectively.

For `Nc1nc(-c2cccc(NS(=O)(=O)c3c(F)cccc3F)c2)c(-c2ccnc(Nc3ccc(N4CCOCC4)nc3)n2)s1` [Example 62], the half-inhibitory concentration (IC50) in assay [1] and in assay [2] was 100 to 1000 nM throughout.

With `CC(=O)N1CCN(c2ccc(Nc3nccc(-c4oc(C(C)C)nc4-c4cccc(NS(=O)(=O)c5c(F)cccc5F)c4)n3)cn2)CC1` [Example 56], the IC50 in assay [1] and in assay [2] was over 1000 nM throughout.

For the molecule `CN1CCC(c2nc(-c3ccc(F)c(NS(=O)(=O)c4c(F)cccc4F)c3)c(-c3ccnc(Nc4ccc(N5CCOCC5)nc4)n3)s2)CC1` [Example 106], the half-inhibitory concentration (IC50) in assay [1] and in assay [2] was 100 to 1000 nM each time.

For the molecule `CCNc1nc(-c2ccc(F)c(NS(=O)(=O)c3c(F)cccc3F)c2)c(-c2ccnc(Nc3ccc(N4CCOCC4)nc3)n2)s1` [Example 166], the half-inhibitory concentration (IC50) in assay [1] was under 100 nM; in assay [2] it was 100 to 1000 nM.

On to `Cc1nc(-c2cccc(NS(=O)(=O)c3c(F)cccc3F)c2)c(-c2ccnc(Nc3ccc(N4CCOCC4)nc3)n2)s1` [Example 133], for which the concentration for half-maximal inhibition (IC50) in assay [1] and in assay [2] was over 1000 nM throughout.

Take `CC(C)c1nc(-c2ccc(F)c(NS(=O)(=O)c3c(F)cccc3F)c2)c(-c2ccnc(Nc3ccncc3)n2)s1` [Example 102]: the concentration for half-maximal inhibition (IC50) in assay [1] and in assay [2] was over 1000 nM throughout.

For `CC(=O)N1CCN(c2ccc(Nc3nccc(-c4sc(C(C)C)nc4-c4cccc(NS(=O)(=O)c5cccc(C(F)(F)F)c5)c4)n3)cn2)CC1` [Example 70], the 50% inhibitory concentration (IC50) in assay [1] and in assay [2] was over 1000 nM throughout.

For the molecule `Cc1cc(N2CCN(CCS(C)(=O)=O)CC2)ncc1Nc1nccc(-c2sc(C(C)C)nc2-c2cccc(NS(=O)(=O)c3c(F)cccc3F)c2)n1` [Example 131], the half-maximal inhibitory concentration (IC50) was 100 to 1000 nM in assay [1] and over 1000 nM in assay [2].

Take `O=S(=O)(Nc1cccc(-c2nc(N3CCCC3)sc2-c2ccnc(Nc3ccc(N4CCN(CCF)CC4)c(F)c3)n2)c1)c1c(F)cccc1F` [Example 21, 2,6-Difluoro-N-{3-[5-[2-({3-fluoro-4-[4-(2-fluoroethyl)-1-piperazinyl]phenyl}amino)-4-pyrimidinyl]-2-(1-pyrrolidinyl)-1,3-thiazol-4-yl]phenyl}benzenesulfonamide]: the IC50 in assay [1] and in assay [2] was under 100 nM each time.

On to `O=S(=O)(Nc1cc(-c2nc(N3CCCC3)oc2-c2ccnc(Nc3ccc(N4CCN(CCF)CC4)c(F)c3)n2)ccc1F)c1c(F)cccc1F` [Example 114], for which the IC50 was 100 to 1000 nM in assay [1] and over 1000 nM in assay [2].

Turning to `CS(=O)(=O)CCN1CCN(c2ccc(Nc3nccc(-c4oc(N5CCCC5)nc4-c4cccc(NS(=O)(=O)c5c(F)cccc5F)c4F)n3)cc2F)CC1` [Example 167], the results for the IC50 in assay [1] and in assay [2] were under 100 nM and 100 to 1000 nM, respectively.

`Cc1nc(Cl)sc1S(=O)(=O)Nc1cccc(-c2nc(C(C)C)sc2-c2ccnc(Nc3ccc(N4CCOCC4)nc3)n2)c1` [Example 42]: the 50% inhibitory concentration (IC50) in assay [1] and in assay [2] was over 1000 nM each time.

Take `CCc1nc(-c2cccc(CNS(=O)(=O)c3ccccc3)c2)c(-c2ccnc(Nc3ccc(N4CCOCC4)c(F)c3)n2)s1` [Example 34]: the figures for the IC50 in assay [1] and in assay [2] were 100 to 1000 nM and over 1000 nM, respectively.

Consider `COc1ccc(Nc2nccc(-c3sc(C(C)C)nc3-c3cccc(NS(=O)(=O)c4c(F)cccc4F)c3)n2)cc1N(C)C` [Example 18, N-{3-[5-(2-{[3-(Dimethylamino)-4-(methyloxy)phenyl]amino}-4-pyrimidinyl)-2-(1-methylethyl)-1,3-thiazol-4-yl]phenyl}-2,6-difluorobenzenesulfonamide trifluoroacetate], for which the IC50 in assay [1] is 100 to 1000 nM; in assay [2], under 100 nM.

As for `CCOc1ccc(Nc2nccc(-c3sc(C(C)C)nc3-c3ccc(F)c(NS(=O)(=O)c4c(F)cccc4F)c3)n2)cc1N1CCN(CCF)CC1` [Example 98], the half-inhibitory concentration (IC50) in assay [1] and in assay [2] was under 100 nM throughout.

As to `CC(C)c1nc(-c2cccc(NS(=O)(=O)c3c(F)cccc3F)c2)c(-c2ccnc(Nc3ccc(N4CCOCC4)c(F)c3)n2)o1` [Example 57], the half-maximal inhibitory concentration (IC50) was over 1000 nM in assay [1] and 100 to 1000 nM in assay [2].

Regarding `CC(C)c1nc(-c2cccc(NS(=O)(=O)C3CCCCC3)c2)c(-c2ccnc(Nc3ccc(N4CCOCC4)c(F)c3)n2)s1` [Example 38], the IC50 was 100 to 1000 nM in assay [1] and over 1000 nM in assay [2].

`CN(C)c1nc(-c2ccc(F)c(NS(=O)(=O)c3c(F)cccc3F)c2)c(-c2ccnc(Nc3ccc(N4CCOCC4)nc3)n2)s1` [Example 27, N-{5-[2-(Dimethylamino)-5-(2-{[6-(4-morpholinyl)-3-pyridinyl]amino}-4-pyrimidinyl)-1,3-thiazol-4-yl]-2-fluorophenyl}-2,6-difluorobenzenesulfonamide]: the concentration for half-maximal inhibition (IC50) in assay [1] and in assay [2] was 100 to 1000 nM in each case.

As for `Cc1cc(N2CCOCC2)ncc1Nc1nccc(-c2sc(N3CCCC3)nc2-c2cccc(NS(=O)(=O)c3c(F)cccc3F)c2)n1` [Example 124], the half-maximal inhibitory concentration (IC50) in assay [1] was 100 to 1000 nM; in assay [2], over 1000 nM.

For `CC(C)c1nc(-c2cccc(NS(=O)(=O)c3cccs3)c2)c(-c2ccnc(Nc3ccc(N4CCOCC4)nc3)n2)s1` [Example 51], the half-maximal inhibitory concentration (IC50) in assay [1] was 100 to 1000 nM; in assay [2], over 1000 nM.

Consider `CC(C)(C)c1nc(-c2ccc(F)c(NS(=O)(=O)c3c(F)cccc3F)c2)c(-c2ccnc(Nc3ccc(N4CCOCC4)nc3)n2)s1` [Example 28, N-{5-[2-(1,1-Dimethylethyl)-5-(2-{[[6-(4-morpholinyl)-3-pyridinyl]amino}-4-pyrimidinyl)-1,3-thiazol-4-yl]-2-fluorophenyl]-2,6-difluorobenzenesulfonamide hydrochloride], for which the IC50 in assay [1] was 100 to 1000 nM; in assay [2] it was over 1000 nM.

For the molecule `CC(C)(C)c1nc(-c2ccc(F)c(NS(=O)(=O)c3c(F)cccc3F)c2)c(-c2ccnc(Nc3ccc(N4CCN(CCF)CC4)c(F)c3)n2)s1` [Example 99], the IC50 in assay [1] is under 100 nM; in assay [2], over 1000 nM.

As to `CC(C)c1nc(-c2cccc(NS(=O)(=O)c3c(F)cccc3F)c2F)c(-c2ccnc(Nc3cnc(N4CCOCC4)c(F)c3)n2)s1` [Example 30, 2,6-Difluoro-N-{2-fluoro-3-[5-(2-{[5-fluoro-6-(4-morpholinyl)-3-pyridinyl]amino}-4-pyrimidinyl)-2-(1-methylethyl)-1,3-thiazol-4-yl]phenyl}benzenesulfonamide], the IC50 in assay [1] and in assay [2] was over 1000 nM each time.

Turning to `O=S(=O)(Nc1cccc(-c2ncsc2-c2ccnc(Nc3ccc(N4CCOCC4)nc3)n2)c1)c1c(F)cccc1F` [Example 162], the values for the half-maximal inhibitory concentration (IC50) in assay [1] and in assay [2] were over 1000 nM and 100 to 1000 nM, respectively.

Consider `COc1cc(N2CCN(CCS(C)(=O)=O)CC2)c(C)cc1Nc1nccc(-c2sc(C(C)(C)C)nc2-c2cccc(NS(=O)(=O)c3c(F)cccc3F)c2)n1` [Example 120], for which the half-inhibitory concentration (IC50) is under 100 nM in assay [1] and over 1000 nM in assay [2].

Regarding `CC(C)c1nc(-c2ccc(F)c(NS(=O)(=O)c3c(F)cccc3F)c2)c(-c2ccnc(Nc3ccc(N4CCN(CCF)CC4)c(F)c3)n2)s1` [Example 25], the IC50 was under 100 nM in assay [1] and 100 to 1000 nM in assay [2].

`CC(C)c1nc(-c2cccc(NS(=O)(=O)c3cccnc3)c2)c(-c2ccnc(Nc3ccc(N4CCOCC4)nc3)n2)s1` [Example 52]: the half-maximal inhibitory concentration (IC50) in assay [1] and in assay [2] was 100 to 1000 nM throughout.

Take `CC(C)c1nc(-c2cc(F)c(F)c(NS(=O)(=O)c3cccc(F)c3)c2)c(-c2ccnc(Nc3cnc(N4CCOCC4)c(F)c3)n2)s1` [Example 31, N-{2,3-Difluoro-5-[5-(2-{[5-fluoro-6-(4-morpholinyl)-3-pyridinyl]amino}-4-pyrimidinyl)-2-(1-methylethyl)-1,3-thiazol-4-yl]phenyl}-3-fluorobenzenesulfonamide]: the IC50 in assay [1] and in assay [2] was over 1000 nM each time.
